The values below come from ChEMBL document CHEMBL4024745, “Causes and Significance of Increased Compound Potency in Cellular or Physiological Contexts” (J Med Chem, 2018).

Data set [1] in a line: Binding affinity to Escherichia coli MRE600 50S ribosome after 80 hrs by equilibrium dialysis method.
Data set [2] in a line: Binding affinity to Escherichia coli A19 50S ribosome after 30 mins by scintillation counting method.
The next data set deals with Bacterial 70S ribosome. Briefly: Binding affinity to Escherichia coli A19 70S ribosome after 30 mins by scintillation counting method.
A short description of data set [3]: Binding affinity to Escherichia coli MRE600 50S ribosome after 10 mins by radioligand binding assay.
The nature of data set [4]: Inhibition of coupled transcription-translation in Escherichia coli UC6782 […] using ortho-nitrophenyl-beta-galactoside as substrate after 30 mins by spectrophotometry.
Data set [5] is described as follows: Drug metabolism in human ZR-75B cells assessed as polyglutamylation of compound at 2 uM after 24 hrs by liquid scintillation counting method. Format: ADME, cell-based. As to conditions: read-out: Drug metabolism.
The nature of data set [6]: Drug metabolism in human MDA231 cells assessed as polyglutamylation of compound at 2 uM after 24 hrs by liquid scintillation counting method. As to conditions: MDA231 (MDA-MB-231) cells, read-out: Drug metabolism. The data set is classed as ADME, cell-based.
A short description of data set [7]: Drug metabolism in human MCF7 cells assessed as polyglutamylation of compound at 2 uM after 24 hrs by liquid scintillation counting method. The data set is classed as ADME, cell-based. As to conditions: read-out: Drug metabolism.

One may read the Kd as the concentration at which binding is half-saturated. Read a low Kd as tighter binding. In data set [1], `CCC[C@@H]1C[C@@H](C(=O)N[C@@H]([C@H]2O[C@H](SC)[C@H](O)[C@@H](O)[C@H]2O)[C@@H](C)O)N([14CH3])C1` came in with a Kd of 34000 nM.
Take `COC[C@H]1O[C@@H](O[C@@H]2OC[C@@H]3O[C@@]4(OC[C@@H](OC(=O)c5c(C)cc(O)cc5O)[C@@H]5OCO[C@H]54)O[C@H]3[C@H]2O)[C@@H](OC)[C@@H](O)[C@@H]1O[C@@H]1O[C@H](C)[C@H](OC)[C@H](O[C@@H]2O[C@H](C)[C@H]3O[C@]4(C[C@@H](O)[C@H](O[C@H]5C[C@@H](O[C@H]6C[C@](C)([N+](=O)[O-])[C@@H](OC)[C@H](C)O6)[C@H](OC(=O)c6c(C)c(Cl)c(O)c(Cl)c6OC)[C@@H](C)O5)[C@@H](C)O4)O[C@]3(C)[C@@H]2O)[C@H]1O` [EVERNIMICIN]: the Kd in data set [2] is 160 nM; on Bacterial 70S ribosome it was 84 nM.
A word on the IC50: it is the concentration that gives 50% inhibition. A higher IC50 goes with weaker potency in that assay. Take `CC(=O)NC[C@H]1CN(c2ccc(N3CCN(C(=O)CO)CC3)c(F)c2)C(=O)O1` [EPEREZOLID]: the concentration for half-maximal inhibition (IC50) came out at 20000 nM in data set [3] and 1800 nM in data set [4].
Consider `CN(Cc1cnc2nc(N)nc(N)c2n1)c1ccc(C(=O)N[C@@H](CCC(=O)O)C(=O)O)cc1` [METHOTREXATE], for which the metabolised at 24 h, 2 µM in data set [5] was 87.6%; in data set [6], 32%; in data set [7] it was 55.4%.
